Where two headings read alike, the source gives them in different places.
Legend:
delF508-CFTR [1] = biological target: T1, delF508-CFTR (Homo sapiens, UniProt P13569, DEL508-508); assay: Measurement of delF508-CFTR-HRP surface expression in CFBE41o- cells; type: cell-based; conditions: for EC50: HRP-tagged delF508-CFTR surface expression, CFBE41o- cells, 24 h with compound, 10-point curve, highest concentration 10 μM; for Emax: CFBE41o-, efficacy relative to reference compound 3-(6-(1-(2,2-difluorobenzo[d][1,3]dioxol-5-yl)cyclopropane-1-carboxamido)-3-methylpyridin-2-yl)benzoic acid, read-out: DelF508-CFTR-HRP Amax %
T1 construct: expressed in transfected cells
In short: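 CFBE41o- cells stably expressing delF508-CFTR with HRP in the fourth extracellular loop, induced 48 h with 500 ng/mL doxycycline, then exposed to compound (10-point, 3-fold, top 10 μM, ≤0.5% DMSO) for 24 h at 37° C. Surface HRP read by luminescence with cell-impermeant substrate; EC50 by logistic fit, triplicates, efficacy relative to reference corrector.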

delF508-CFTR [2] = biological target: T1, delF508-CFTR; assay: Measurement of delF508-CFTR functional activity in primary human bronchial epithelial cells (HBECs) using MTECC-24 assay; type: cell-based; conditions: for EC50: primary human delF508-CFTR bronchial epithelial cells, 24 hr compound treatment, equivalent short circuit current, forskolin and potentiator, mean of at least two replicates, read-out: MTECC24 CFHBEC EC50; for MTECC24 CFHBEC Amax %: test compound (24 h) with potentiator (S)-3-amino-6-methoxy-N-(3,3,3-trifluoro-2-hydroxy-2-methylpropyl)-5-(trifluoromethyl)picolinamide, relative to 2 μM 3-(6-(1-(2,2-difluorobenzo[d][1,3]dioxol-5-yl)cyclopropane-1-carboxamido)-3-methylpyridin-2-yl)benzoic acid plus 0.5 μM N-(2,4-di-tert-butyl-5-hydroxyphenyl)-4-oxo-1,4-dihydroquinoline-3-carboxamide
From the text: Measurement of delF508-CFTR Functional Activity in Primary Human Bronchial Epithelial Cells (HBECs) Using Multi-Transepithelial Clamp Circuit (MTECC-24) Assay
This assay measures the functional activity of the CFTR channel (Chloride ion transport) in patient derived primary human bronchial epithilial cells with forskolin activation and in the presence of the CFTR corrector/potentiator combination.
Primary human delF508-CFTR bronchial epithelial cells were and cultured according to previously established methods (Neuberger, T. et, al., Methods in Molecular Biology, 2011, 741, pp 39-54). Briefly, before thawing the HBEC cells, T25 flasks were coated with 2 mL of 3T3 conditioned media (MTI-GlobalStem, Cat #GSM9100) for at least 12 hours in 37° C. CO2 incubator. 1.7×10^5 cells were seeded into one T25 flask with 5 mL of HBE growth media (BEBM with supplements (Lonza, Cat #CC-3170) with 10 nM of retinoic acid (Sigma, Cat #R-2625) and 1% of PSA (Hyclone, Cat #SV30079.01). Media was changed every day till the cells were 100% confluent. Cells were seeded into T75 flasks (pre-coated with 5 mL of 3T3 conditioned media for more than 12 hrs) at 4.95×10^5 cells/T75 flask in 15 mL of HBE growth media. Flasks were fed everyday with fresh HBE growth media until the cells were confluent. 24-well transwell plates (Corning, Cat #3378) were coated with 3T3 conditioned media (70 μL on top of the filter, 350 μL to the bottom of the well) overnight in the 37° C. CO2 incubator. Cells were seeded in the pre-coated 24-well transwell plates at 1.7×10^5 cell/well with 700 μL of growth media at the bottom of the well and 200 μL of growth media at the top of the filter. After 24 hrs, cells were switched into HBE differentiation media ((DMEM/F12 (Gibco, Cat #11330-032) supplement with 2% Ultroser G (Pall, Cat #15950-017), 2% of Fetal Clone II (Hyclone, Cat #SH30066.03), 0.25% Bovine Brain Extract (Lonza, Cat #CC-4098), 1% of PSA, 2.5 μg/mL of Insulin (Sigma, Cat #19278), 20 nM of Hydrocortisone (Sigma, Cat #H0888), 500 nM of Triiodothyronine (Sigma, Cat #T6397), 2.5 μg/mL of Transferrin (Sigma, Cat #T8158), 250 nM of Ethanolamine (Sigma, Cat #E0135), 1.5 μM of Epinephrine (Sigma, Cat #E4250), 250 nM of Phosphoethanolamine (Sigma, Cat #P0503), 10 nM of retinoic acid)) with 200 μL on top of the filter (apical side) and 700 μL at the bottom of the well (basolateral side). Cells were fed every other day with the differentiation media. After 4 days, cells were exposed to air/liquid interface. Then cells were fed every other day for 4 weeks before fully differentiated.
Cells were washed with 3 mM DTT in PBS at 70 ul/well for 30 min at 37° C. 6 days before the assay. 3 days before the assay, cells were washed again with PBS at 70 ul/well for 30 min at 37° C. Then cells were treated with compound for 24 hrs before the assay.
Following 24 hr treatment with compound, cells were transferred into plates containing 750 ul of assay media on basolateral side and 250 ul on apical side (Assay medium: F-12 Coon's modified, 20 mM HEPES pH7.4 with TRIS Base, No FCS or bicarbonate). The plates wee then transferred to the heated plate compartments (basolateral buffer temperature ˜36.5° C. on the heating block) of the TECC24 system for 45 mins prior to measurements.
Modulators were added sequentially as follows while the TECC24 instrument recorded the equivalent short circuit current (Ieq):
Prior to dilution into assay medium the stocks were as follows: Benzamil stock: 10 mM in DMSO
Forskolin Stock: 50 mM in DMSO
N-(2,4-di-tert-butyl-5-hydroxyphenyl)-1,4-dihydro-4-oxoquinoline-3-carboxamide: 50 mM in DMSO (S)-3-amino-6-methoxy-N-(3,3,3-trifluoro-2-hydroxy-2-methylpropyl)-5-(trifluoromethyl)picolinamide: 50 mM stock 100% DMSO Bumetanide stock: 20 mM in EtOH
The data was normalized using the median signal from wells treated with 0.1% DMSO as a baseline. Curve fitting and EC50 calculations were performed using the following equation: […]

T1 sequence (P13569 with tags, fused parts or gaps DEL508-508): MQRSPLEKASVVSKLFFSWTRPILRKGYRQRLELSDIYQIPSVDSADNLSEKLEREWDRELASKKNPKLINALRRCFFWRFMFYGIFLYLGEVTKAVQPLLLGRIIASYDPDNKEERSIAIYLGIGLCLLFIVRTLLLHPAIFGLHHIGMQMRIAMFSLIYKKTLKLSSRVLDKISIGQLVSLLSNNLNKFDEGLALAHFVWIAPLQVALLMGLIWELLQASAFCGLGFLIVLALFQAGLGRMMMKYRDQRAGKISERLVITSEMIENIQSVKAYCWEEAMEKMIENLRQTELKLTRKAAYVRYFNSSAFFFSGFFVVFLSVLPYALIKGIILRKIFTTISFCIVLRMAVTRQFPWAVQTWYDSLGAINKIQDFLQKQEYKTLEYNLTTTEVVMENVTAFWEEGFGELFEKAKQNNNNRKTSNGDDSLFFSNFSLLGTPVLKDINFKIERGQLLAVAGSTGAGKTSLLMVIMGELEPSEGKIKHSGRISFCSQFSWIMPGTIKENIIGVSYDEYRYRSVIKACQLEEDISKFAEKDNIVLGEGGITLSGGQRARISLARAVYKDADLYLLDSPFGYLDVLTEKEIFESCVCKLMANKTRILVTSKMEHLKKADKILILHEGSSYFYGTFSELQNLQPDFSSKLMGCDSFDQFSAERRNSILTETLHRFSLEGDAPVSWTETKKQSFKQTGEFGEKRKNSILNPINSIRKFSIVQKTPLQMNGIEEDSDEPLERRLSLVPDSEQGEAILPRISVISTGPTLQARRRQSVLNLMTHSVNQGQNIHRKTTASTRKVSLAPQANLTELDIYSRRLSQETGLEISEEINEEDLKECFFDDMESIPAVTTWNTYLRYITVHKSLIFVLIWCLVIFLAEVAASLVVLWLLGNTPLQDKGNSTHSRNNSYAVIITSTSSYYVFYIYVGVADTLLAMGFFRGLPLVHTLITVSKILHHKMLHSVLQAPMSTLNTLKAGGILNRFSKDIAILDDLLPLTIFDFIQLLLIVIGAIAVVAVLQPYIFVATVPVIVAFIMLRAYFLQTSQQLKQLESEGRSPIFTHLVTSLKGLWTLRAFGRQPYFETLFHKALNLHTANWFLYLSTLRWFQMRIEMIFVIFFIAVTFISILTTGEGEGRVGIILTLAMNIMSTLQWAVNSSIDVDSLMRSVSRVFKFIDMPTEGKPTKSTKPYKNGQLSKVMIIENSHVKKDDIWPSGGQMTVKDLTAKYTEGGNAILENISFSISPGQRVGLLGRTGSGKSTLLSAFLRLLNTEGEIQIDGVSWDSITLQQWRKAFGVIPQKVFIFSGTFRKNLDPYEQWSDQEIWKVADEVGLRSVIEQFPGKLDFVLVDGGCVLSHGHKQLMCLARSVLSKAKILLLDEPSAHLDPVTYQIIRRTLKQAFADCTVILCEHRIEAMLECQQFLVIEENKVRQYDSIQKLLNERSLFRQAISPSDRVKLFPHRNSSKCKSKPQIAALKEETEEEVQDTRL

EC50 (delF508-CFTR [1])	EC50 (delF508-CFTR [2])	MTECC24 CFHBEC Amax % (delF508-CFTR [2])	Compound	further results
–	–	–	O=S1(=O)Nc2ccc(C(F)(F)F)c(n2)-c2ccccc2C=CCCC(CCCO)Oc2cccc1n2 (stereo not shown)	ring closure, isolated yield (from C=CCCC(CCCO)Oc1cccc(S(=O)(=O)Nc2ccc(C(F)(F)F)c(-c3ccccc3C=C)n2)n1, rcm bond, 16-membered ring, Grubbs II (10 mol%), DCM, 3.68 mM, 45.0 °C): 95%
–	–	–	O=S1(=O)Nc2ccc(C(F)(F)F)c(n2)-c2ccccc2C=CCCCCN(CCCCCO)c2cccc1n2	ring closure, isolated yield (from C=CCCCCN(CCCCCO)c1cccc(S(=O)(=O)Nc2ccc(C(F)(F)F)c(-c3ccccc3C=C)n2)n1, rcm bond, 17-membered ring, Grubbs II (20 mol%), DCM (or DCE), 1.85 mM, 55.0 °C): 94%
–	–	–	O=S1(=O)Nc2ccc(C(F)(F)F)c(n2)-c2ccccc2C=CCCN(CCO)c2cccc1n2	ring closure, isolated yield (from C=CCCN(CCO)c1cccc(S(=O)(=O)Nc2ccc(C(F)(F)F)c(-c3ccccc3C=C)n2)n1, rcm bond, 15-membered ring, Grubbs II (two portions), DCM, 2.1 mM, 45.0 °C): 91%
66 nM	0.9 nM	171.1%	CC(C)(CO)CN1CCCCCCc2ccccc2-c2nc(ccc2C(F)(F)F)NS(=O)(=O)c2cccc1n2 [Compound 28, 6-(3-hydroxy-2,2-dimethylpropyl)-2^3-(trifluoromethyl)-4-thia-3,6-diaza-2,5(2,6)-dipyridina-1(1,2)-benzenacyclododecaphane 4,4-dioxide]	–
1180 nM	30.9 nM	56.7%	O=C(O)CCN1CCCCCc2ccccc2-c2nc(ccc2Cl)NS(=O)(=O)c2cccc1n2 [Compound 89, 3-(2^3-chloro-4,4-dioxido-4-thia-3,6-diaza-2,5(2,6)-dipyridina-1(1,2)-benzenacycloundecaphane-6-yl)propanoic acid]	Emax (delF508-CFTR [1]): 858%
919 nM	4.6 nM	123.2%	O=C(O)CCCN1CCCCc2ccccc2-c2nc(ccc2C(F)(F)F)NS(=O)(=O)c2cccc1n2 [Compound 90, 4-(4,4-dioxido-2^3-(trifluoromethyl)-4-thia-3,6-diaza-2,5(2,6)-dipyridina-1(1,2)-benzenacyclodecaphane-6-yl)butanoic acid]	Emax (delF508-CFTR [1]): 674%
694 nM	6.9 nM	90.0%	O=C(O)CCN1CCCCCc2ccccc2-c2nc(ccc2C(F)(F)F)NS(=O)(=O)c2cccc1n2 [Compound 92, 3-(4,4-dioxido-2^3-(trifluoromethyl)-4-thia-3,6-diaza-2,5(2,6)-dipyridina-1(1,2)-benzenacycloundecaphane-6-yl)propanoic acid]	Emax (delF508-CFTR [1]): 982%
230 nM	0.8 nM	279.3%	CC(C)(CN1CCCCCCc2ccccc2-c2nc(ccc2C(F)(F)F)NS(=O)(=O)c2cccc1n2)C(=O)O [Compound 99, 3-(4,4-dioxido-2^3-(trifluoromethyl)-4-thia-3,6-diaza-2,5(2,6)-dipyridina-1(1,2)-benzenacyclododecaphane-6-yl)-2,2-dimethylpropanoic acid]	–
351 nM	4.3 nM	175.8%	CC(C)(CN1CCCCCc2ccccc2-c2nc(ccc2C(F)(F)F)NS(=O)(=O)c2cccc1n2)C(=O)O [Compound 100, 3-(4,4-dioxido-2^3-(trifluoromethyl)-4-thia-3,6-diaza-2,5(2,6)-dipyridina-1(1,2)-benzenacycloundecaphane-6-yl)-2,2-dimethylpropanoic acid]	–
391 nM	1 nM	213.1%	O=S1(=O)Nc2ccc(C(F)(F)F)c(n2)-c2ccccc2CCCCCN(CCO)c2cccc1n2 [Compound 117, 6-(2-hydroxyethyl)-2^3-(trifluoromethyl)-4-thia-3,6-diaza-2,5(2,6)-dipyridina-1(1,2)-benzenacycloundecaphane 4,4-dioxide]	–
–	–	–	tert-butyl 4-(4,4-dioxido-2^3-(trifluoromethyl)-10-oxa-4-thia-3,6-diaza-2,5(2,6)-dipyridina-1(1,2)-benzenacycloundecaphane-6-yl)butanoate	ring closure, isolated yield (snar bond, 16-membered ring, DIEA, NMP, 40.0 mM, 135.0 °C): 75%
